Results as given in article PMC8035703, “Effect of Synchronous Versus Sequential Regimens on the Pharmacokinetics and Biodistribution of Regorafenib with Irradiation” (Pharmaceutics, 2021).
“Also recorded” adds a separate entry of the source. Where two headings read alike, the source gives them in different places.

Experiment: Organ distribution of regorafenib in rats with or without RT
Format: in vivo, Sprague-Dawley rats
Conditions: for concentration at 4 h: Sprague-Dawley, rat, 16 mg/kg, 4 h after oral administration
Experimental: According to the formula used to translate doses from animal to human, human equivalent dose (HED, mg/kg) = animal dose (mg/kg) × animal km/human km, we calculated the daily dose of regorafenib for rats to be 16 (mg/kg/day). The rats were randomly divided into ten groups with six rats in each group. The concurrent groups treated with regorafenib 1 h after RT, in the same day, to mimic regorafenib concurrent with RT in the daily practice. The sequential groups treated with regorafenib following RT (not in the same day), to mimic RT followed by regorafenib in the daily practice. The one fraction study group included (A) a sham group, regorafenib with RT0 Gy (regorafenib × 1 d); concurrent groups treated with regorafenib 1 h after (B) RT2 Gy with 1 fraction (RT2 Gy × 1 f’x) and (D) RT9 Gy with 1 fraction (RT9 Gy × 1 f’x); and sequential groups treated with regorafenib 24 h after (C) RT2 Gy × 1 f’x and (E) RT9 Gy × 1 f’x. Continued treatment mimicking clinical practice was applied to (A) a sham group, regorafenib (p.o. (per os), q.d. × 3 d) with RT0 Gy (regorafenib × 3 d); concurrent groups treated with regorafenib (p.o., q.d. × 3 d) 1 h after (B) RT2 Gy with 3 fractions (RT2 Gy × 3 f’x) and (D) RT9 Gy with 3 fractions (RT9Gy × 3 f’x); and sequential groups treated with regorafenib 24 h (p.o., q.d. × 3 d) after (C) RT2 Gy × 3 f’x and (E) RT9 Gy × 3 f’x. (Figure 1A,B).
Organs, including the brain, liver, heart, spleen, lung and kidney, were collected, weighed and stored at −20 °C, until analysis.
The organ samples were homogenized in 50% aqueous acetonitrile (sample weight: volume = 1:5) and centrifuged at 13,000× g, for 10 min, at 4 °C. The supernatant was stored at −20 °C, until analysis. Additionally, 150 μL of IS solution (diethylstilbestrol) was combined with each organ sample (50 μL) for protein precipitation. Finally, the filtrate (20 μL) was analyzed by HPLC.

SMILES: CNC(=O)c1cc(Oc2ccc(NC(=O)Nc3ccc(Cl)c(C(F)(F)F)c3)c(F)c2)ccn1 [regorafenib, Regorafenib]
- concentration at 4 h (brain, oral, RT2 Gy × 1 f'x followed by regorafenib 16 mg/kg × 1 d (sequential), read-out: Concentration in brain): 80 ± 60 ng/g
- concentration at 4 h (brain, oral, RT2 Gy × 3 f'x followed by regorafenib 16 mg/kg × 3 d (sequential), read-out: Concentration in brain): 30 ± 50 ng/g
- concentration at 4 h (brain, oral, RT2 Gy × 3 f'x with regorafenib 16 mg/kg × 3 d (concurrent), read-out: Concentration in brain): 20 ± 50 ng/g
- concentration at 4 h (brain, oral, RT9 Gy × 1 f'x with regorafenib 16 mg/kg × 1 d (concurrent), read-out: Concentration in brain): 10 ± 20 ng/g
- concentration at 4 h (heart, oral, RT2 Gy × 1 f'x followed by regorafenib 16 mg/kg × 1 d (sequential), read-out: Concentration in heart): 780 ± 270 ng/g
- concentration at 4 h (heart, oral, RT2 Gy × 3 f'x followed by regorafenib 16 mg/kg × 3 d (sequential), read-out: Concentration in heart): 290 ± 180 ng/g
- concentration at 4 h (heart, oral, RT2 Gy × 3 f'x with regorafenib 16 mg/kg × 3 d (concurrent), read-out: Concentration in heart): 30 ± 30 ng/g
- concentration at 4 h (heart, oral, RT9 Gy × 1 f'x with regorafenib 16 mg/kg × 1 d (concurrent), read-out: Concentration in heart): 360 ± 330 ng/g
- concentration at 4 h (kidney, oral, RT2 Gy × 1 f'x followed by regorafenib 16 mg/kg × 1 d (sequential), read-out: Concentration in kidneys): 590 ± 270 ng/g
- concentration at 4 h (kidney, oral, RT2 Gy × 3 f'x followed by regorafenib 16 mg/kg × 3 d (sequential), read-out: Concentration in kidneys): 730 ± 440 ng/g
- concentration at 4 h (kidney, oral, RT2 Gy × 3 f'x with regorafenib 16 mg/kg × 3 d (concurrent), read-out: Concentration in kidneys): 130 ± 60 ng/g
- concentration at 4 h (kidney, oral, RT9 Gy × 1 f'x with regorafenib 16 mg/kg × 1 d (concurrent), read-out: Concentration in kidneys): 180 ± 50 ng/g
- concentration at 4 h (liver, oral, RT2 Gy × 1 f'x followed by regorafenib 16 mg/kg × 1 d (sequential), read-out: Concentration in liver): 2280 ± 750 ng/g
- concentration at 4 h (liver, oral, RT2 Gy × 3 f'x followed by regorafenib 16 mg/kg × 3 d (sequential), read-out: Concentration in liver): 1680 ± 650 ng/g
- concentration at 4 h (liver, oral, RT2 Gy × 3 f'x with regorafenib 16 mg/kg × 3 d (concurrent), read-out: Concentration in liver): 550 ± 270 ng/g
- concentration at 4 h (liver, oral, RT9 Gy × 1 f'x with regorafenib 16 mg/kg × 1 d (concurrent), read-out: Concentration in liver): 1010 ± 580 ng/g
- concentration at 4 h (lung, oral, RT2 Gy × 1 f'x followed by regorafenib 16 mg/kg × 1 d (sequential), read-out: Concentration in lung): 1270 ± 640 ng/g
- concentration at 4 h (lung, oral, RT2 Gy × 3 f'x followed by regorafenib 16 mg/kg × 3 d (sequential), read-out: Concentration in lung): 990 ± 430 ng/g
- concentration at 4 h (lung, oral, RT2 Gy × 3 f'x with regorafenib 16 mg/kg × 3 d (concurrent), read-out: Concentration in lung): 210 ± 90 ng/g
- concentration at 4 h (lung, oral, RT9 Gy × 1 f'x with regorafenib 16 mg/kg × 1 d (concurrent), read-out: Concentration in lung): 170 ± 140 ng/g
- concentration at 4 h (spleen, oral, RT2 Gy × 1 f'x followed by regorafenib 16 mg/kg × 1 d (sequential), read-out: Concentration in spleen): 680 ± 300 ng/g
- concentration at 4 h (spleen, oral, RT2 Gy × 3 f'x followed by regorafenib 16 mg/kg × 3 d (sequential), read-out: Concentration in spleen): 410 ± 240 ng/g
- concentration at 4 h (spleen, oral, RT2 Gy × 3 f'x with regorafenib 16 mg/kg × 3 d (concurrent), read-out: Concentration in spleen): 80 ± 60 ng/g
- concentration at 4 h (spleen, oral, RT9 Gy × 1 f'x with regorafenib 16 mg/kg × 1 d (concurrent), read-out: Concentration in spleen): 140 ± 70 ng/g
- Biodistribution in heart, liver, lung, spleen and kidneys (in words) (concurrent RT2 Gy × 3 f'x and RT9 Gy × 3 f'x vs control (regorafenib × 3 d)): clearly decreased the biodistribution of regorafenib; also recorded: obviously decreased the biodistribution of regorafenib
- concentration at 4 h (male, brain, oral, RT2 Gy × 1 f'x with regorafenib 16 mg/kg × 1 d (concurrent), read-out: Concentration in brain): 20 ± 30 ng/g
- concentration at 4 h (male, brain, oral, RT9 Gy × 1 f'x followed by regorafenib 16 mg/kg × 1 d (sequential), read-out: Concentration in brain): 60 ± 50 ng/g
- concentration at 4 h (male, brain, oral, RT9 Gy × 3 f'x followed by regorafenib 16 mg/kg × 3 d (sequential), read-out: Concentration in brain): 40 ± 80 ng/g
- concentration at 4 h (male, brain, oral, RT9 Gy × 3 f'x with regorafenib 16 mg/kg × 3 d (concurrent), read-out: Concentration in brain): 10 ± 20 ng/g
- concentration at 4 h (male, brain, po, 16 mg/kg p.o. × 1 d, no RT, read-out: Concentration in brain): 30 ± 40 ng/g
- concentration at 4 h (male, brain, po, 16 mg/kg p.o. × 3 d, no RT, read-out: Concentration in brain): 10 ± 20 ng/g
- concentration at 4 h (male, heart, oral, RT2 Gy × 1 f'x with regorafenib 16 mg/kg × 1 d (concurrent), read-out: Concentration in heart): 290 ± 170 ng/g
- concentration at 4 h (male, heart, oral, RT9 Gy × 1 f'x followed by regorafenib 16 mg/kg × 1 d (sequential), read-out: Concentration in heart): 870 ± 140 ng/g
- concentration at 4 h (male, heart, oral, RT9 Gy × 3 f'x followed by regorafenib 16 mg/kg × 3 d (sequential), read-out: Concentration in heart): 170 ± 270 ng/g
- concentration at 4 h (male, heart, oral, RT9 Gy × 3 f'x with regorafenib 16 mg/kg × 3 d (concurrent), read-out: Concentration in heart): 90 ± 70 ng/g
- concentration at 4 h (male, heart, po, 16 mg/kg p.o. × 1 d, no RT, read-out: Concentration in heart): 450 ± 310 ng/g
- concentration at 4 h (male, heart, po, 16 mg/kg p.o. × 3 d, no RT, read-out: Concentration in heart): 250 ± 100 ng/g
- concentration at 4 h (male, kidney, oral, RT2 Gy × 1 f'x with regorafenib 16 mg/kg × 1 d (concurrent), read-out: Concentration in kidneys): 210 ± 110 ng/g
- concentration at 4 h (male, kidney, oral, RT9 Gy × 1 f'x followed by regorafenib 16 mg/kg × 1 d (sequential), read-out: Concentration in kidneys): 590 ± 340 ng/g
- concentration at 4 h (male, kidney, oral, RT9 Gy × 3 f'x followed by regorafenib 16 mg/kg × 3 d (sequential), read-out: Concentration in kidneys): 400 ± 430 ng/g
- concentration at 4 h (male, kidney, oral, RT9 Gy × 3 f'x with regorafenib 16 mg/kg × 3 d (concurrent), read-out: Concentration in kidneys): 170 ± 120 ng/g
- concentration at 4 h (male, kidney, po, 16 mg/kg p.o. × 1 d, no RT, read-out: Concentration in kidneys): 340 ± 190 ng/g
- concentration at 4 h (male, kidney, po, 16 mg/kg p.o. × 3 d, no RT, read-out: Concentration in kidneys): 650 ± 250 ng/g
- concentration at 4 h (male, liver, oral, RT2 Gy × 1 f'x with regorafenib 16 mg/kg × 1 d (concurrent), read-out: Concentration in liver): 1100 ± 510 ng/g
